In US20080132412A1, “7-Amino-6-Heteroaryl-1,2,4-Triazolo[1,5-A]Pyrimidines and Their Use for Controlling Harmful Fungi” (BASF Aktiengesellschaft, priority 2004, published 2008):

Tested on: Septoria tritici
Assay: Speckled leaf blotch pathogen Septoria tritici in the microtiter test
Type: cell-based
Conditions: 125 ppm, microtiter plate, absorption at 405 nm on day 7 after inoculation
Description: The stock solution is pipetted into a microtiter plate (MTP) and diluted to the stated active compound concentration using an aqueous, malt-based nutrient medium for fungi. An aqueous spore suspension of Septoria tritici was then added. The plates were placed in a water vapor-saturated chamber at temperatures of 18° C. Using an absorption photometer, the MTPs were measured at 405 nm on day 7 after the inoculation. The parameters measured were compared to the growth of the active compound-free control variant and the fungus- and active compound-free blank value to determine the relative growth in % of the pathogens in the individual active compounds. The relative growth at 125 ppm of compound 1 was 0%.

Question: For `Cc1nc2ncnn2c(N2CCC(C)CC2)c1-c1ncncc1Cl` [compound 1, 6-(5-chloropyrimidin-4-yl)-5-methyl-7-(4-methylpiperidin-1-yl)-[1,2,4]triazolo[1,5-a]pyrimidine], which relative growth is on record?
Answer: The relative growth was 0%.
